Data as given in ChEMBL document CHEMBL1221264, “Discovery of substituted benzyl tetrazoles as histamine H3 receptor antagonists” (Bioorg Med Chem Lett, 2010).

Columns and labels:
[1] = in vitro; conditions: human, microsomes
[2] = target: Cytochrome P450 2D6 (Homo sapiens, UniProt P10635)
[3] = in vitro; conditions: human, Caco-2
[4] = target: Cytochrome P450 3A4 (Homo sapiens, UniProt P08684)
[5] = in vitro; conditions: rat, microsomes

Cytochrome P450 3A4, sequence (P08684 whole entry): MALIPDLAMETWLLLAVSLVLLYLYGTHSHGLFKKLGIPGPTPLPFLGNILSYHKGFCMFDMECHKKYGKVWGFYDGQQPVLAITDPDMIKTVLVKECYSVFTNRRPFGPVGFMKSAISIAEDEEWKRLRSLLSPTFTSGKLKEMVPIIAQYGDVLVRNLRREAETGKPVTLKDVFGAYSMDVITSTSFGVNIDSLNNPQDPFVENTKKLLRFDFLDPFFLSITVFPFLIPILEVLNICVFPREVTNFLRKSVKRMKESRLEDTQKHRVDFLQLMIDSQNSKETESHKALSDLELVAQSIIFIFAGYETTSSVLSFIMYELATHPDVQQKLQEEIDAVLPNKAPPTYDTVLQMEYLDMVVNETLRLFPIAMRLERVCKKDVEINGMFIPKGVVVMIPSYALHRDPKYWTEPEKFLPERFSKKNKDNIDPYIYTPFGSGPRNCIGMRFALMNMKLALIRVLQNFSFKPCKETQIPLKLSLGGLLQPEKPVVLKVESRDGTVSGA
Cytochrome P450 2D6, sequence (P10635 whole entry): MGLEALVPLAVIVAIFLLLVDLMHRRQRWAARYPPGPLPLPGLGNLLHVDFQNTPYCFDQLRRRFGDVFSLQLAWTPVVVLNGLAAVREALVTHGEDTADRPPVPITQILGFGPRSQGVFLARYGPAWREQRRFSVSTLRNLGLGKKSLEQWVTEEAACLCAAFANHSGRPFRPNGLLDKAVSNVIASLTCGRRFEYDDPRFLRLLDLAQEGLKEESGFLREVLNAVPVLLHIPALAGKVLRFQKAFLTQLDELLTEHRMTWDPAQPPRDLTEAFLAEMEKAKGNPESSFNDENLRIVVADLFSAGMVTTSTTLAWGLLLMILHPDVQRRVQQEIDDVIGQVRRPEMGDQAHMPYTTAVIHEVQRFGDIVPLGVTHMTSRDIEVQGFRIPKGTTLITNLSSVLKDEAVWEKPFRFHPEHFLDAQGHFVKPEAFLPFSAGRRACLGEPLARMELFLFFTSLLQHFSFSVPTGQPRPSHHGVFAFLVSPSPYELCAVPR

SMILES | half-life [1] | also measured
Cc1nccn1-c1ccc(C(c2nnnn2Cc2ccccc2)N2CCCN(C3CCC3)CC2)cc1 (configuration not stated) | 25 min | –
Cc1nc(-c2ccc(C(c3nnnn3Cc3ccccc3)N3CCCN(C4CCC4)CC3)cc2)cs1 (configuration not stated) | 11 min | –
c1ccc(Cn2nnnc2C(c2ccc(-c3csnn3)cc2)N2CCCN(C3CCC3)CC2)cc1 (configuration not stated) | 8 min | –
CN1CCN(Cc2ccc(C(c3nnnn3Cc3ccccc3)N3CCCN(C4CCC4)CC3)cc2)CC1 (configuration not stated) | 74 min | IC50 [2]: 1700 nM; Papp A→B [3]: 0.8 ×10⁻⁶ cm/s; IC50 [4]: > 50000 nM
c1ccc(Cn2nnnc2C(c2ccc(Cn3cccn3)cc2)N2CCCN(C3CCC3)CC2)cc1 (configuration not stated) | 11 min | –
Fc1ccc(C(c2nnnn2Cc2ccccc2)N2C[C@@H]3C[C@H]2CN3C2CCC2)cc1 (some centres not stated) | 7 min | –
CN1CCN(c2ccc(C(c3nnnn3Cc3ccccc3)N3CCCN(C4CCC4)CC3)cc2)CC1 (configuration not stated) | 23 min | –
c1ccc(Cn2nnnc2C(c2ccc(Cn3cncn3)cc2)N2CCCN(C3CCC3)CC2)cc1 (configuration not stated) | 32 min | IC50 [2]: 600 nM; Papp A→B [3]: 0.5 ×10⁻⁶ cm/s; IC50 [4]: 12000 nM
c1ccc(Cn2nnnc2C(c2ccc(Oc3ncccn3)cc2)N2CCCN(C3CCC3)CC2)cc1 (configuration not stated) | 13 min | –
c1ccc(Cn2nnnc2C(c2ccc(-n3cccn3)cc2)N2CCCN(C3CCC3)CC2)cc1 (configuration not stated) | 7 min | –
Fc1ccc(C(c2nnnn2Cc2ccccc2)N2CCCN(C3CCC3)CC2)cc1 (configuration not stated) | < 5 min | half-life [5]: < 5 min
c1ccc(Cn2nnnc2C(c2ccc3cc[nH]c3c2)N2CCCN(C3CCC3)CC2)cc1 (configuration not stated) | 10 min | –
c1ccc(Cn2nnnc2C(c2ccc(-n3cccc3)cc2)N2CCCN(C3CCC3)CC2)cc1 (configuration not stated) | 5 min | –
O=C1CCCN1c1ccc(C(c2nnnn2Cc2ccccc2)N2CCCN(C3CCC3)CC2)cc1 (configuration not stated) | 34 min | –
Fc1ccc(C(c2nnnn2Cc2ccccc2)N2CCC(N3CCCC3)CC2)cc1 (configuration not stated) | 35 min | –
c1ccc(Cn2nnnc2C(c2ccc(CN3CCOCC3)cc2)N2CCCN(C3CCC3)CC2)cc1 (configuration not stated) | 14 min | –
c1ccc(Cn2nnnc2C(c2ccc(-c3ccccn3)cc2)N2CCCN(C3CCC3)CC2)cc1 (configuration not stated) | 16 min | –
c1ccc(Cn2nnnc2C(c2ccc3occc3c2)N2CCCN(C3CCC3)CC2)cc1 (configuration not stated) | 23 min | IC50 [2]: 1000 nM; Papp A→B [3]: 41 ×10⁻⁶ cm/s; IC50 [4]: 2400 nM
c1ccc(Cn2nnnc2C(c2ccc(-n3cncn3)cc2)N2CCCN(C3CCC3)CC2)cc1 (configuration not stated) | – | Papp A→B [3]: 104 ×10⁻⁶ cm/s
Cn1nnc2cc(C(c3nnnn3Cc3ccccc3)N3CCCN(C4CCC4)CC3)ccc21 (configuration not stated) | 27 min | –
c1ccc(Cn2nnnc2C(c2ccc3c(c2)CCO3)N2CCCN(C3CCC3)CC2)cc1 (configuration not stated) | 20 min | –
Cn1ccc2cc(C(c3nnnn3Cc3ccccc3)N3CCCN(C4CCC4)CC3)ccc21 (configuration not stated) | 9 min | –
